Counter-ions that a name gives are not always drawn.

T1 sequence (P37288 whole entry): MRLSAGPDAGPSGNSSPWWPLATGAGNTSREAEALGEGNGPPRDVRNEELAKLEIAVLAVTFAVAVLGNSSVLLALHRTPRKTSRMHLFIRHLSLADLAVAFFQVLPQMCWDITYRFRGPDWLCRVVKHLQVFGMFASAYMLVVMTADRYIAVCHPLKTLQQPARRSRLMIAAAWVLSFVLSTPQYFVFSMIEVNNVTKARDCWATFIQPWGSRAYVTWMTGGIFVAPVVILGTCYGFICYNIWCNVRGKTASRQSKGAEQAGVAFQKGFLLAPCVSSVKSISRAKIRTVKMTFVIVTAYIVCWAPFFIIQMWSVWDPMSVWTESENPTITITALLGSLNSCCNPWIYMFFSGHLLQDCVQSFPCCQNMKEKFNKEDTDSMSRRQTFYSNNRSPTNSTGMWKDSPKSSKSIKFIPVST

This assay concerns the target T1, human V1a receptor (Homo sapiens, UniProt P37288).
T1 construct: expressed in transfected cells; host or cells: HEK293 cells, transiently transfected; membranes prepared
Description: human V1a receptor binding (3H-Vasopressin SPA, HEK293 membranes). To be noted: membranes of HEK293 cells transiently transfected with human V1a receptor, Ki by Cheng-Prussoff, read-out: pKi (hV1a) (converted). Summed up: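 HEK293 membranes transiently expressing cloned human V1a receptor, bound to yttrium silicate SPA beads in Tris/NaCl/KCl/CaCl2/MgCl2 buffer. Test compounds in 2% DMSO competed with 3H-vasopressin (4 nM solution added) for 1 h at room temperature; non-specific binding defined with cold vasopressin. IC50 from non-linear fit, Ki via Cheng-Prusoff.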
As for `Cc1nc([C@H]2CC[C@H](c3nnc4n3-c3ccc(Cl)cc3CN(C(C)C)C4)CC2)no1` [Example 76, trans-8-Chloro-5-isopropyl-1-[4-(5-methyl-[1,2,4]oxadiazol-3-yl)-cyclohexyl]-5,6-dihydro-4H-2,3,5,10b-tetraaza-benzo[e]azulene], the Ki was 10 nM. With `CCc1nc([C@H]2CC[C@@H](c3nnc4n3-c3ccc(Cl)cc3CNC4)CC2)no1` [Example 89, cis-8-Chloro-1-[4-(5-ethyl-[1,2,4]oxadiazol-3-yl)-cyclohexyl]-5,6-dihydro-4H-2,3,5,10b-tetraaza-benzo[e]azulene hydrochloride], the Ki is 2750 nM.

As to `Clc1ccc2c(c1)CNCc1nnc([C@H]3CC[C@H](c4nccs4)CC3)n1-2` [Example 14, trans-8-Chloro-1-(4-thiazol-2-yl-cyclohexyl)-5,6-dihydro-4H-2,3,5,10b-tetraaza-benzo[e]azulene], the Ki was 28.2 nM.

Consider `CC(C)c1nc([C@H]2CC[C@@H](c3nnc4n3-c3ccc(Cl)cc3CNC4)CC2)no1` [Example 95, cis-8-Chloro-1-[4-(5-isopropyl-[1,2,4]oxadiazol-3-yl)-cyclohexyl]-5,6-dihydro-4H-2,3,5,10b-tetraaza-benzo[e]azulene hydrochloride], for which the Ki was 2950 nM. The value for `Cc1cc([C@H]2CC[C@H](c3nnc4n3-c3ccc(F)cc3CN(C(=O)OC(C)(C)C)C4)CC2)no1` [Example 36, trans-8-Fluoro-1-[4-(5-methyl-isoxazol-3-yl)-cyclohexyl]-4H,6H-2,3,5,10b-tetraaza-benzo[e]azulene-5-carboxylic acid tert-butyl ester] was 0.776 nM. Take `Cc1nc([C@H]2CC[C@H](c3nnc4n3-c3ccc(Cl)cc3CN(C)C4)CC2)oc1Cl` [Example 100, trans-8-Chloro-1-[4-(5-chloro-4-methyl-oxazol-2-yl)-cyclohexyl]-5-methyl-5,6-dihydro-4H-2,3,5,10b-tetraaza-benzo[e]azulene]: the Ki is 1.1 nM.

Consider `Cc1cc([C@H]2CC[C@H](c3nnc4n3-c3ccc(F)cc3CNC4)CC2)no1` [Example 37, trans-8-Fluoro-1-[4-(5-methyl-isoxazol-3-yl)-cyclohexyl]-5,6-dihydro-4H-2,3,5,10b-tetraaza-benzo[e]azulene], for which the Ki is 91.2 nM.

As for `Cc1nc([C@H]2CC[C@H](c3nnc4n3-c3ccc(Cl)cc3CN(S(C)(=O)=O)C4)CC2)no1` [Example 81, trans-8-Chloro-5-methanesulfonyl-1-[4-(5-methyl-[1,2,4]oxadiazol-3-yl)-cyclohexyl]-5,6-dihydro-4H-2,3,5,10b-tetraaza-benzo[e]azulene], the Ki was 4.27 nM. Consider `CCc1cc([C@H]2CC[C@H](c3nnc4n3-c3ccc(Cl)cc3CNC4)CC2)no1` [Example 52, trans-8-Chloro-1-[4-(5-ethyl-isoxazol-3-yl)-cyclohexyl]-5,6-dihydro-4H-2,3,5,10b-tetraaza-benzo[e]azulene hydrochloride], for which the Ki is 6.31 nM. Turning to `Cc1nc([C@H]2CC[C@H](c3nnc4n3-c3ccc(Cl)cc3CN(C)C4)CC2)sc1Cl` [Example 103, trans-8-Chloro-1-[4-(5-chloro-4-methyl-thiazol-2-yl)-cyclohexyl]-5-methyl-5,6-dihydro-4H-2,3,5,10b-tetraaza-benzo[e]azulene], the Ki is 1.58 nM.

Regarding `Cc1nsc([C@H]2CC[C@H](c3nnc4n3-c3ccc(Cl)cc3CN(C(=O)OC(C)(C)C)C4)CC2)n1` [Example 69, trans-8-Chloro-1-[4-(3-methyl-[1,2,4]thiadiazol-5-yl)-cyclohexyl]-4H,6H-2,3,5,10b-tetraaza-benzo[e]azulene-5-carboxylic acid tert-butyl ester], the Ki was 1.51 nM.

Regarding `Cc1cc([C@H]2CC[C@H](c3nnc4n3-c3ccc(Cl)cc3CN(CC(F)F)C4)CC2)no1` [Example 28, trans-8-Chloro-5-(2,2-difluoro-ethyl)-1-[4-(5-methyl-isoxazol-3-yl)-cyclohexyl]-5,6-dihydro-4H-2,3,5,10b-tetraaza-benzo[e]azulene], the Ki was 0.603 nM. The value for `Cc1nc([C@H]2CC[C@@H](c3nnc4n3-c3ccc(Cl)cc3CN(C)C4)CC2)no1` [Example 84, cis-8-Chloro-5-methyl-1-[4-(5-methyl-[1,2,4]oxadiazol-3-yl)-cyclohexyl]-5,6-dihydro-4H-2,3,5,10b-tetraaza-benzo[e]azulene] was 135 nM; that for `Cc1onc([C@H]2CC[C@H](c3nnc4n3-c3ccc(Cl)cc3CN(C)C4)CC2)c1F` [Example 47, trans-8-Chloro-1-[4-(4-fluoro-5-methyl-isoxazol-3-yl)-cyclohexyl]-5-methyl-5,6-dihydro-4H-2,3,5,10b-tetraaza-benzo[e]azulene] was 0.575 nM. The value for `Clc1ccc2c(c1)CNCc1nnc([C@H]3CC[C@H](c4noc5c4CCCC5)CC3)n1-2` [Example 55, trans-8-Chloro-1-[4-(4,5,6,7-tetrahydro-benzo[d]isoxazol-3-yl)-cyclohexyl]-5,6-dihydro-4H-2,3,5,10b-tetraaza-benzo[e]azulene] was 5.89 nM. `Cc1nc([C@H]2CC[C@H](c3nnc4n3-c3ccc(Cl)cc3CN(C)C4)CC2)cs1` [Example 21, trans-8-Chloro-5-methyl-1-[4-(2-methyl-thiazol-4-yl)-cyclohexyl]-5,6-dihydro-4H-2,3,5,10b-tetraaza-benzo[e]azulene]: the Ki was 1.7 nM. Then `Cc1csc([C@H]2CC[C@H](c3nnc4n3-c3ccc(Cl)cc3CN(C)C4)CC2)n1` [Example 18, trans-8-Chloro-5-methyl-1-[4-(4-methyl-thiazol-2-yl)-cyclohexyl]-5,6-dihydro-4H-2,3,5,10b-tetraaza-benzo[e]azulene], with 1.7 nM; and `Cc1nnc([C@H]2CC[C@H](c3nnc4n3-c3ccc(Cl)cc3CN(C)C4)CC2)o1` [Example 65, trans-8-Chloro-5-methyl-1-[4-(5-methyl-[1,3,4]oxadiazol-2-yl)-cyclohexyl]-5,6-dihydro-4H-2,3,5,10b-tetraaza-benzo[e]azulene], with 15.8 nM. Then `Clc1ccc2c(c1)CNCc1nnc([C@H]3CC[C@@H](c4noc5c4CCCC5)CC3)n1-2` [Example 58, cis-8-Chloro-1-[4-(4,5,6,7-tetrahydro-benzo[d]isoxazol-3-yl)-cyclohexyl]-5,6-dihydro-4H-2,3,5,10b-tetraaza-benzo[e]azulene], with 191 nM. With `Cc1coc([C@H]2CC[C@H](c3nnc4n3-c3ccc(Cl)cc3CN(C(=O)OC(C)(C)C)C4)CC2)n1` [Example 4, trans-8-Chloro-1-[4-(4-methyl-oxazol-2-yl)-cyclohexyl]-4H,6H-2,3,5,10b-tetraaza-benzo[e]azulene-5-carboxylic acid tert-butyl ester], the Ki was 0.398 nM. Consider `Cc1cc(C)n([C@H]2CC[C@H](c3nnc4n3-c3ccc(Cl)cc3CN(C)C4)CC2)n1` [Example 117, trans-8-Chloro-1-[4-(3,5-dimethyl-pyrazol-1-yl)-cyclohexyl]-5-methyl-5,6-dihydro-4H-2,3,5,10b-tetraaza-benzo[e]azulene], for which the Ki was 6.92 nM. The value for `Cc1nc([C@H]2CC[C@@H](c3nnc4n3-c3ccc(Cl)cc3CN(C(=O)OC(C)(C)C)C4)CC2)no1` [Example 82, cis-8-Chloro-1-[4-(5-methyl-[1,2,4]oxadiazol-3-yl)-cyclohexyl]-4H,6H-2,3,5,10b-tetraaza-benzo[e]azulene-5-carboxylic acid tert-butyl ester] was 14.8 nM.

The values are drawn from patent US8513238B2 (Hoffmann-La Roche Inc., priority 2010, dated 2013).
